# Patent US4338331A, “Isoindoline derivative and a therapeutic composition thereof” (priority 1979, dated 1982)
# “And” between values parts separate entries of the source, which are not always exact repeats. Equal values may be shown once. “Also recorded” adds a separate entry of the source.
# Legend:
# [1] = tested on: rat with spontaneous hypertension (SHR); experiment: Hypotensive activity: arterial pressure of the rat with spontaneous hypertension (TABLE 4); format: in vivo, SHR male rats; details: 1.2 mg/kg/day oral
# Method: The effects of subacute oral treatment with CM/1 on the arterial pressure of the rat with spontaneous hypertension (SHR) were followed on 10 genetically hypertensive (SHR) male rats obtained from Charles River. They were divided at random into two groups of 5 each, and treated in the following manner:
# GROUP A: CONTROLS--10% gum arabic, 5 ml/kg/day by oral administration using a gastro-oesophageal probe;
# GROUP B: CM/1--1.2 mg/5 ml of gum arabic/kg/day by oral administration using a gastro-oesophageal probe.
# The treatment was carried out for 28 consecutive days. The arterial pressure was recorded at regular intervals by the bloodless method, using the "BP Recorder 8005" apparatus of "W+W Electronic".
# The measurement was made in the following manner: the tail of the animals was carefully depilated and then inserted into a sleeve of suitable diameter connected by a tube to a pump and a pressure gauge. The tail was then inserted into a circular transducer, which was connected to a pulse counter. When the apparatus was switched on, the pressure increased in the sleeve until the blood flow was arrested.
# The pressures were now read from the pressure gauge.
# Before beginning the experiments, the animals had been subjected for a week to this procedure in order to accustom them to handling.
# [2] = Acute toxicity, oral, mouse; format: in vivo; details: in vivo, mouse, read-out: DL50
# Method: (§1) Acute toxicity was determined orally in the Wister rat and in the Swiss mouse of both sexes.
# (§2) The animals were kept fasting for at least 12 hours before the tests but whith free access to water. The compound was suspended homogeneously in gum arabic mucilage and was administered, at the set doses, in a volume of 40 ml/kg by means of a gastro-oesophageal probe.
# (§3) Each dose was tested on ten animals, of which five were male and five female. The weight of the rats varied from 300 to 350 g for the males and from 220 g to 250 g for the females. The weight of the mice, of both sexes, varied from 28 g to 35 g.
# (§4) The observation lasted ten days.
# male rats = experiment: Diuretic and saluretic activity: excretion of a load of distilled water (TABLE 2); format: in vivo, Wistar rat; details: 5 mg/kg oral + aqueous load
# Method: Both the CM/1 and the Indapamide were administered orally after being suitably dissolved in the following solvent:
# The controls were treated with an equal volume of solvent. The experiments were carried out on animals which had regularly fasted for at least 12 hours, but had free access to water.
# The sodium and potassium in the urine were determined by a photometric method.
# The rats were then immediately placed in individual metabolic cages. The urine was collected over 4 hours. The quantity has been expressed in the usual manner as a percentage of the volume administered.
# Sodium and potassium were also analysed, and these have been expressed as mEq/4h.
# After two days, in the preceding manner, the same rats were treated with Indapamide, and after a further two days with the product CM/1. In the interval between one test and the other, the rats were housed and fed in the normal manner. The dose used for both compounds was the same as previously, i.e. 5 mg/kg.
# Wister rat = experiment: Acute toxicity, oral, rat; format: in vivo
# Method: as §1, §2, §3, §4
# [3] = Acute toxicity, oral, rat; format: in vivo; details: in vivo, rat, read-out: DL50
# Method: as §1, §2, §3, §4
# [4] = individual rats, base of rats 1-5: 235, 215, 260, 265, 250
smiles,measurement,setting,value
"CC1c2ccccc2CN1NC(=O)c1ccc(Cl)c(S(N)(=O)=O)c1 (centres unmarked) [CM/1, 1-methyl-2-(3'-sulphamyl-4'-chlorobenzamido)-isoindoline]","Systolic arterial pressure measured bloodlessly, 7th day of treatment",[1]; [4],210 mm Hg and 205 mm Hg and 245 mm Hg and 225 mm Hg
same,"Systolic arterial pressure measured bloodlessly, 14th day of treatment",[1]; [4],195 mm Hg and 215 mm Hg and 235 mm Hg and 200 mm Hg and 220 mm Hg
same,"Systolic arterial pressure measured bloodlessly, 21st day of treatment",[1]; [4],195 mm Hg and 210 mm Hg and 220 mm Hg and 180 mm Hg
same,"Systolic arterial pressure measured bloodlessly, 28th day of treatment",[1]; [4],185 mm Hg and 210 mm Hg and 205 mm Hg
same,"Systolic arterial pressure measured bloodlessly, 7th day of treatment","[1]; mean, n = 5, base 245.0 ± 9.08",219.0 ± 7.31 mm Hg
same,"Systolic arterial pressure measured bloodlessly, 14th day of treatment","[1]; mean, n = 5, base 245.0 ± 9.08",213.0 ± 7.17 mm Hg
same,"Systolic arterial pressure measured bloodlessly, 21st day of treatment","[1]; mean, n = 5, base 245.0 ± 9.08",203.0 ± 7.00 mm Hg
same,"Systolic arterial pressure measured bloodlessly, 28th day of treatment","[1]; mean, n = 5, base 245.0 ± 9.08",198.0 ± 5.38 mm Hg
same,maximum reduction of the systolic arterial pressure,[1]; recording on the 28th day,20%
same,anti-hypertensive activity,"[1]; SHR, 28 days, 1.2 mg/kg/day",significantly reduces the systolic arterial pressure; also recorded: shows anti-hypertensive activity
same,LD50 at 240 h,[2],> 2500 mg/kg
same,activity of CM/1 compared with Indapamide,male rats,more active than the Indapamide
same,diuretic and saluretic action,male rats,significant diuretic and saluretic action
same,RATIO Na/K (sodium to potassium excreted),"male rats; 4 h, average",2.6955
same,Cumulative percent excretion at 1 hour from load,male rats; individual rats,58.1% and 50.0% and 7.1% and 55.2% and 51.6%
same,Cumulative percent excretion at 2 hours from load,male rats; individual rats,109.7% and 78.6% and 57.1% and 110.4% and 125.8%
same,Cumulative percent excretion at 3 hours from load,male rats; individual rats,116.2% and 107.2% and 85.7% and 134.5% and 145.2%
same,Cumulative percent excretion at 4 hours from load,male rats; individual rats,116.2% and 121.4% and 114.3% and 134.5% and 167.8%
same,Potassium excretion,male rats; individual rats,0.00542 mEq/4h and 0.00512 mEq/4h and 0.00603 mEq/4h and 0.00856 mEq/4h and 0.01399 mEq/4h
same,Sodium excretion,male rats; individual rats,0.01374 mEq/4h and 0.01362 mEq/4h and 0.0125 mEq/4h and 0.01671 mEq/4h and 0.04889 mEq/4h
same,Cumulative percent excretion at 1 hour from load,male rats; mean of 5 rats,44.4%
same,Cumulative percent excretion at 2 hours from load,male rats; mean of 5 rats,96.32%
same,Cumulative percent excretion at 3 hours from load,male rats; mean of 5 rats,117.76%
same,Cumulative percent excretion at 4 hours from load,male rats; mean of 5 rats,130.84 ± 9.89%
same,Potassium excretion,male rats; mean of 5 rats,0.007824 mEq/4h
same,Sodium excretion,male rats; mean of 5 rats,0.02109 mEq/4h
same,DL50,"Wister rat; Wister rat, both sexes, 10 days observation","> 2,500 mg/kg"
same,deaths / toxic symptomatology,"Wister rat; rat, individual doses up to 2,500 mg/kg","No deaths were observed either in the rat or in the mouse, nor was any particular toxic symptomatology found"
same,LD50 at 240 h,[3],> 2500 mg/kg
